Measurements reported in publication PMC5884906, “Single Administration of HBK-15—a Triple 5-HT1A, 5-HT7, and 5-HT3 Receptor Antagonist—Reverses Depressive-Like Behaviors in Mouse Model of Depression Induced by Corticosterone” (Molecular Neurobiology, 2017).
Marks after values point to notes of the source that are not given here.

Assays:
[1] = target: T1, 5-HT3 receptors expressed in guinea pig ileum (Cavia porcellus, UniProt O70212); design: method as in PMID 25847619; conditions: functional affinity; cited from earlier work
T1 construct: A segment (15 cm) of male guinea pig ileum was excised from the small intestine; from tissue; host or cells: isolated male guinea pig ileum segments in an organ bath
T1 sequence (O70212 20-490): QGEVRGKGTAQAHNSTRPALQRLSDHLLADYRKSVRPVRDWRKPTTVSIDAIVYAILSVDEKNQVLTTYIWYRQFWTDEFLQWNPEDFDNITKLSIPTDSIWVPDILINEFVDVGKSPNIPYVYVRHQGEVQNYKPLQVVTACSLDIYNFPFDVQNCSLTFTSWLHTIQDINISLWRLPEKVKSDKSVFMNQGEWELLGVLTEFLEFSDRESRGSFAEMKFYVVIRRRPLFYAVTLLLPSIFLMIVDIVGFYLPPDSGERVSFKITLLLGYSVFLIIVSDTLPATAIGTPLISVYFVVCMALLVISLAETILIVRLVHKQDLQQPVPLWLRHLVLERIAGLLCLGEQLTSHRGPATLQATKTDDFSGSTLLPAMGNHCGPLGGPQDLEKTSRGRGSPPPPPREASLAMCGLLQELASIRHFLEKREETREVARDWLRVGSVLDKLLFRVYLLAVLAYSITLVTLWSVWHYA

[2] = system: BDNF level in the hippocampus; assay: BDNF level in the hippocampus (ELISA), single administration; format: in vivo, mice; conditions: single 1 mg/kg i.p., corticosterone-treated mice
Experimental: (§1) Mice were injected with corticosterone (s.c., 20 mg/kg) at random times during the light phase for consecutive 21 days (Fig. 1c). The dose and route of administration of corticosterone were based on studies performed by Zhao and colleagues. After the end of the procedure, next day 30 min before the test, corticosterone-treated mice were given (i.p.) saline, HBK-15 (1.25 mg/kg), fluoxetine (10 mg/kg), or ketamine (1 mg/kg) (Fig. 1c). Control mice received (i.p.) saline. The experimental groups consisted of eight randomly selected animals. We chose the dose of HBK-15 that was active in the chronic experiments (i.e., 1.25 mg/kg). The dose of ketamine was based on the studies performed by Pazini and colleagues. Animals were tested in the forced swim test and spontaneous locomotor activity test. After behavioral testing, mice were scarified and their hippocampi collected for biochemical analysis.
After the behavioral assessments, mice were sacrificed, and their brains were rapidly removed and chilled in an ice-cold saline solution. The hippocampi were dissected on a cold plate, frozen, and stored at −80 °C until assay. On the day of experiments, tissues were thawed on ice and homogenized (1:9 w/v) in phosphate-buffered saline (4 °C) and protease inhibitor cocktail was added. The 10% homogenates were prepared and homogenized for 30 s with TissueRuptor homogenizer. The homogenized tissues were centrifuged (2500×g at 4 °C for 20 min), and the supernatants were collected for further assays.
Protein concentrations of BDNF and NGF in homogenates from hippocampi were determined using the enzyme-linked immunosorbent assay (ELISA) kits (BDNF: DZE201020014, SunRed Biotechnology Company; NGF: MBS825100, MyBioSource) according to the manufacturer’s instructions. […] The samples were analyzed in duplicates, and the mean concentrations were calculated. […] The intensity of the color was read at 450 nm. Absorbance was measured in a multifunction plate reader (POLARstar Omega, BMG Labtech, Germany). […]

[3] = system: corticosterone-treated mice; assay: forced swim test, single administration, corticosterone model; format: in vivo; conditions: single 1 mg/kg i.p., 30 min before the test
Experimental: as §1
Forced swim test was performed according to the method described by Porsolt and colleagues and previously described. Mice were placed individually for 6 min in glass cylinders (height 25 cm, diameter 10 cm) containing […] (23–25 °C). The total time of immobility was recorded during the final 4 min of the test. The experiments were recorded and scored using aLab.io software by a trained observer blind to the treatments.

[4] = system: corticosterone-treated mice; assay: spontaneous locomotor activity, single administration; format: in vivo; conditions: single 1 mg/kg i.p. in corticosterone-treated mice; 4 min
Experimental: as §1, with “After the end of the procedure, next day 30 min before the test, corticosterone-treated mice were given (i.p.) saline, HBK-15 (1.25 mg/kg), fluoxetine (10 mg/kg), or ketamine (1 mg/kg) (Fig. 1c).” left out
The locomotor activity was performed as previously described. Locomotor activity was recorded individually for each mouse using activity cages made of clear Perspex (40 cm × 40 cm × 31 cm, Activity Cage 7441, Ugo Basile, Italy). The cages were supplied with I.R. horizontal beam emitters connected to a counter for the recording of light-beam interruptions. Each mouse was placed in a cage for a 30-min habituation period. After that time, the number of crossings of photobeams was measured for 6 min (chronic studies) or for 4 min (acute experiments; i.e., the time equal to the observation period in the forced swim test). The cages were disinfected with 70% ethanol after each mouse.

| Structure (SMILES) | 5-HT3 receptor pK B ± S.E.M [1] | increase in BDNF level in the hippocampus compared with controls [2] [%] | effect on corticosterone-induced increase in immobility [3] | Number of crossings ± S.E.M [4] |
| --- | --- | --- | --- | --- |
| Cc1nccn1CC1CCc2c(c3ccccc3n2C)C1=O (stereo not shown) [Ondansetron] | 7.111 ± 0.12^a |  |  |  |
| CNC1(c2ccccc2Cl)CCCCC1=O (stereo not shown) [ketamine] |  | 33 | reversed an increase in immobility | 248.7 ± 25.3 |
